Reference: patent US20100190755A1, “TETRACYCLINE COMPOUNDS FOR THE TREATMENT OF RHEUMATOID ARTHRITIS AND RELATED METHODS OF TREATMENT” (priority 2008, published 2010)
≈ marks a conversion by molar mass, not a printed value.

How the values were obtained:
[1] = test system: collagen-induced arthritis (CIA) in male DBA/1 mice; test: Murine collagen-induced arthritis (CIA) model, Example 2; type: in vivo, mouse; conditions: for % Inhibition (Change in Paw Thickness) AVG / % Inhibition (Clinical Score) AVG / Change in Paw Thickness (mm) Mean: 25 mg/kg/day i.p.; for % Inhibition (Change in Paw Thickness) AVG / % Inhibition (Clinical Score) AVG: dosed after disease onset; for EC50 in inflammation suppression in CIA mice: i.p. daily; for Effects on reduction of paw swelling and clinical score compared to either minocycline or methotrexate / joint inflammation when administered after disease onset: murine CIA model
Method: Four non-antibacterial analogues of minocycline (J, W, AF and AT) were synthesized and tested in the murine model of the disease, collagen-induced arthritis (CIA) (See supra). Male DBA/1 mice were immunized intradermally with 200 μg of bovine type II collagen and boosted with collagen three weeks later. Minocycline and four non-antibacterial minocycline derivatives were administered i.p. beginning after disease onset. Paw thickness was measured and animals were scored daily.
(§1) • 1. Male DBA/1 mice were immunized i.d. with an emulsion of 200 μg bovine type II collagen in Complete Freund's Adjuvant. • 2. On day 21, mice received i.d. boost of 100 μg collagen in Incomplete Freund's Adjuvant • 3. Compounds were administered i.p. daily for 7 days starting from disease onset (day 3-4 after boost). • 4. Foot swelling was measured by an engineering micrometer and disease severity was scored accordingly (1, erythema and mild swelling confined to the tarsal or ankle joint; 2, erythema and mild swelling extending from the ankle to the mid-foot; 3, erythema and moderate swelling extending from the ankle to the metatarsal joints; 4, erythema and severe swelling encompassing the ankle, foot, and digits). • 5. Change (Δ) of paw thickness=sum of paw thickness from 4 paws of a mouse (experimental)−sum of baseline paw thickness from 4 paws of the same mouse. • 6. % inhibition=cumulative A paw thickness (disease group−compound-treated group)/cumulative A paw thickness (disease group)

MMP-9 = test: Paw extract biomarker ELISA, CIA mice: MMP-9; type: in vivo, mouse; conditions: paw extracts from CIA mice
Method: as §1
(§2) • 1. Paws were collected from mice after 5-7 days of dosing and dissected free of skin. • 2. The paws were then homogenized in ice-cold PBS (2 ml/4 paws/mouse) containing 1× protease inhibitor using a Polytron homogenizer. • 3. Debris and particles were removed from the homogenized samples by centrifugation. • 4. Liquid layers were collected for MMP-9, IL-1, IL-6, RANKL, MCP-1, and TNFα analysis using ELISA kits from R & D System.

[2] = test system: cytokines (IL-1, IL-6, RANKL and MCP-1) and a matrix metalloproteinase (MMP-9); test: Paw extract biomarker ELISA, CIA mice: whole panel (statements in words); type: in vivo, mouse
Method: as §1, §2

S. aureus RN450 = test: Antibacterial activity MIC, Gram+ (Table 9); type: cell-based; conditions: Staphylococcus aureus, CAMHB, 35° C., approximately 18 hr
Outline: (§3)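 MIC taken as lowest compound level preventing growth after about 18 h at 35 °C (ambient air), read by microplate reader with visual check. Fresh log-phase cultures were inoculated to about 5×10^5 CFU/ml final into CAMHB dilutions spanning 200 to 0.098 μg/ml, starting from a DMSO stock.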

[3] = test system: E. coli ATCC25922 (tetracycline sensitive); test: E. coli MIC, broth micro-dilution per CLSI guidelines (Table 3); type: cell-based; conditions: for MIC: Escherichia coli, E. coli ATCC25922, cation-adjusted Mueller Hinton broth
E. coli 25922 = test: Antibacterial activity MIC, Gram- (Table 9); type: cell-based; conditions: Escherichia coli, CAMHB, 35° C., approximately 18 hr
Outline: as §3

[4] = test system: collagen-induced arthritis (CIA) in male DBA/1 mice; test: CIA model, Example 3 (cumulative scores vs untreated controls); type: in vivo; conditions: Mus musculus
Outline: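 Immunised intradermally with bovine type II collagen in CFA and boosted at day 21 in IFA. After onset, tetracycline derivatives given daily i.p. or orally for 8 to 15 days. Daily visual inflammation scores (0–4 scale) and micrometer paw thickness summed into cumulative scores.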

[5] = Pharmacokinetics in rats after i.v. and oral dosing; type: in vivo; conditions: rat; for bioavailability: male, CD/IGS, after oral dosing of 5 mg/kg, read-out: PK Parameters (Rat) % F, fraction of absorption; for bioavailability / half-life: plasma; for half-life: male CD/IGS rats, 1 mg/kg i.v. or 5 mg/kg oral, read-out: PK Parameters (Rat) T1/2 (converted)
Method: Pre-cannulated (jugular vein and carotid artery for i.v. group and carotid artery for oral group) male CD/IGS rats (approximately 250 g) were used. Rats were fasted overnight prior to dosing with access to food restored 2 hours after dosing. Rats were administered with approximately 0.25 mL compound (1 mg/kg dose) for i.v. route (via jugular vein over 20 seconds) or 0.5 mL solution (5 mg/kg dose) orally. Blood (300 μL) was collected in tubes with EDTA anticoagulant at various time points, centrifuged and plasma collected and stored frozen at −20° C. Animals were euthanized by CO2 following the final blood collection. Plasma was extracted (0.1% trifluoroacetic acid in 67% acetonitrile/33% water) and levels of compound quantified by HPLC/MS against a standard curve.

MCP-1 = test: Paw extract biomarker ELISA, CIA mice: MCP-1; type: in vivo, mouse; conditions: paw extracts from CIA mice
Method: as §1, §2

IL-1 = test: Paw extract biomarker ELISA, CIA mice: IL-1; type: in vivo, mouse; conditions: paw extracts from CIA mice
Method: as §1, §2

RANKL = test: Paw extract biomarker ELISA, CIA mice: RANKL; type: in vivo, mouse; conditions: paw extracts from CIA mice
Method: as §1, §2

IL-6 = test: Paw extract biomarker ELISA, CIA mice: IL-6; type: in vivo, mouse; conditions: paw extracts from CIA mice
Method: as §1, §2

[6] = test system: Protein synthesis (E. coli S30 Extract System); test: Protein synthesis inhibition, in vitro transcription/translation assay (E. coli S30 Extract System for Circular DNA); type: biochemical

SMILES	% Inhibition (Change in Paw Thickness) AVG [1] [%]	% Inhibition (Clinical Score) AVG [1] [%]	EC50 in inflammation suppression in CIA mice [1] [mg/kg/day i.p.]	Change in Paw Thickness (mm) Mean ([1]; day 1 of dosing) [mm]	Change in Paw Thickness (mm) Mean ([1]; day 2 of dosing) [mm]	Change in Paw Thickness (mm) Mean ([1]; day 3 of dosing) [mm]	Change in Paw Thickness (mm) Mean ([1]; day 4 of dosing) [mm]	Change in Paw Thickness (mm) Mean ([1]; day 5 of dosing) [mm]	Change in Paw Thickness (mm) Mean ([1]; day 6 of dosing) [mm]	Change in Paw Thickness (mm) Mean ([1]; day 7 of dosing) [mm]	Change in Paw Thickness (mm) Mean ([1]; day 8 of dosing) [mm]	Effects on reduction of paw swelling and clinical score compared to either minocycline or methotrexate [1]	joint inflammation when administered after disease onset [1]	Percent level of Biomarker Tissue [c] Compared to Untreated Control, MMP-9 AVG (MMP-9) [%]	inhibition of inflammatory/osteoclastic cytokines (MMP-9, IL-1, IL-6, MCP-1, RANKL) in vivo [2]	MIC (S. aureus RN450) [µg/mL]	anti-bacterial activity compared to minocycline [3]	MIC [3] [µg/mL]	MIC (E. coli 25922) [µg/mL]	inhibition in vivo at 12 mg/kg [4] [%]	further results
CCc1cc(N(C)C)c2c(c1O)C(=O)C1=C(O)[C@]3(O)C(=O)C(C(N)=O)=C(O)C[C@@H]3C[C@@H]1C2 [Compound AF]	62	42	12	0.55	0.39	0.61	0.49	0.46	0.38	0.42	0.54	greater	inhibited joint inflammation	113	better than minocycline	1 (≈ 2.26 µM)	no anti-bacterial activity	> 64	> 64	49	inhibition in vivo at 6 mg/kg ([4]; Dose 6 mg/kg): 28%; inhibition in vivo at 35 mg/kg ([4]; Dose 35 mg/kg): 62%; bioavailability [5]: 77%; bio-available after oral dosing in rats [5]: bio-available; half-life [5]: 3.1 h; Percent level of Biomarker Tissue [c] Compared to Untreated Control, MCP-1 AVG (MCP-1): 43%; Percent level of Biomarker Tissue [c] Compared to Untreated Control, IL-1 AVG (IL-1): 55%; Percent level of Biomarker Tissue [c] Compared to Untreated Control, RANKL AVG (RANKL): 38%; Percent level of Biomarker Tissue [c] Compared to Untreated Control, IL-6 AVG (IL-6): 35%; IC50 [6]: > 100 µM
CC(C)c1cc(N(C)C)c2c(c1O)C(=O)C1=C(O)[C@]3(O)C(=O)C(C(N)=O)=C(O)[C@@H](N(C)C)[C@@H]3C[C@@H]1C2 [Compound J]	71	45	14	0.47	0.39	0.33	0.48	0.36	0.37	0.50	0.65	greater	inhibited joint inflammation	68	better than minocycline	2 (≈ 4 µM)	no anti-bacterial activity	> 64	> 64	34	inhibition in vivo at 25 mg/kg ([4]; Dose 25 mg/kg): 71%; bioavailability [5]: 65%; bio-available after oral dosing in rats [5]: bio-available; half-life [5]: 2.5 h; Percent level of Biomarker Tissue [c] Compared to Untreated Control, MCP-1 AVG (MCP-1): 60%; Percent level of Biomarker Tissue [c] Compared to Untreated Control, IL-1 AVG (IL-1): 52%; Percent level of Biomarker Tissue [c] Compared to Untreated Control, RANKL AVG (RANKL): 32%; Percent level of Biomarker Tissue [c] Compared to Untreated Control, IL-6 AVG (IL-6): 68%; IC50 [6]: > 100 µM
